Laboratory results as given in PubChem BioAssay AID330 (DTP/NCI, 2004).
Several values for one entry are separate records, joined by “and”; a condition that tells them apart may be missing. Equal values may be shown once. Inconclusive results and toxic doses are left out. How the source made its calls: active means survival T/C of 150% or more; inactive means T/C below 125% in these data.

Test system: P388 leukemia ip, CD2F1 mice, survival T/C
Test: NCI In Vivo Anticancer Drug Screen. Data for tumor model P388 Leukemia (intraperitoneal) in CD2F1 (CDF1) mice
Conditions: endpoint: median survival time, higher = longer survival
Method in brief: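 Mice carrying the transplanted tumor received test compound or vehicle. Survival was recorded in each group, and the value is the treated-group measurement divided by that of the vehicle-treated control group.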

[1] = dose: 50.0 mg/kg/injection, schedule: Q01DX005 (ip), vehicle: saline with Tween-80
[2] = dose: 50.0 mg/kg/injection, schedule: Q01DX005 (ip), vehicle: Klucel (hydroxypropylcellulose) (HPC)
[3] = dose: 50.0 mg/kg/injection, schedule: Q01DX001 (ip), vehicle: Klucel (hydroxypropylcellulose) (HPC)
[4] = dose: 100.0 mg/kg/injection, schedule: Q01DX001 (ip), vehicle: Klucel (hydroxypropylcellulose) (HPC)
[5] = dose: 200.0 mg/kg/injection, schedule: Q01DX001 (ip), vehicle: Klucel (hydroxypropylcellulose) (HPC)
[6] = dose: 50.0 mg/kg/injection, schedule: Q01DX009 (ip), vehicle: Klucel (hydroxypropylcellulose) (HPC)
[7] = dose: 100.0 mg/kg/injection, schedule: Q01DX009 (ip), vehicle: Klucel (hydroxypropylcellulose) (HPC)
[8] = dose: 200.0 mg/kg/injection, schedule: Q01DX009 (ip), vehicle: Klucel (hydroxypropylcellulose) (HPC)

Measured: T/C

CCC12OC(COc3ccccc3)CN1CCS2 (configuration not stated)
inactive: [1] 98 % of control | dose: 100.0 mg/kg/injection, schedule: Q01DX005 (ip), vehicle: saline with Tween-80 107 % of control | dose: 200.0 mg/kg/injection, schedule: Q01DX005 (ip), vehicle: saline with Tween-80 99 % of control

CC1SC2(C(=O)N(CN3CCCCC3)c3ccccc32)N(c2ccccc2)C1=O (configuration not stated)
inactive: [2] 90 % of control | dose: 100.0 mg/kg/injection, schedule: Q01DX005 (ip), vehicle: Klucel (hydroxypropylcellulose) (HPC) 100 % of control | dose: 200.0 mg/kg/injection, schedule: Q01DX005 (ip), vehicle: Klucel (hydroxypropylcellulose) (HPC) 94 % of control

O=C(CCCN1CCN(c2cc3ccccc3cn2)CC1)c1ccc(F)cc1
inactive: dose: 12.5 mg/kg/injection, schedule: Q01DX005 (ip), vehicle: Klucel (hydroxypropylcellulose) (HPC) 109 % of control | dose: 25.0 mg/kg/injection, schedule: Q01DX005 (ip), vehicle: Klucel (hydroxypropylcellulose) (HPC) 109 % of control | [2] 110 % of control and 115 % of control

C=C1CC2(CCC23CC(=C)C(=O)O3)OC1=O (configuration not stated)
inactive: dose: 5.0 mg/kg/injection, schedule: Q01DX009 (ip), vehicle: Klucel (hydroxypropylcellulose) (HPC) 100 % of control | dose: 10.0 mg/kg/injection, schedule: Q01DX009 (ip), vehicle: Klucel (hydroxypropylcellulose) (HPC) 116 % of control | dose: 20.0 mg/kg/injection, schedule: Q01DX009 (ip), vehicle: Klucel (hydroxypropylcellulose) (HPC) 117 % of control

CC(=O)N(c1ccccc1)C1CCC2(C)C(=CCC3C2CCC2(C)C(C(C)CCCC(C)C)CCC32)C1 (configuration not stated)
inactive: dose: 100.0 mg/kg/injection, schedule: Q04DX003 (sc), vehicle: steriod suspending solution 100 % of control | dose: 200.0 mg/kg/injection, schedule: Q04DX003 (sc), vehicle: steriod suspending solution 100 % of control | dose: 400.0 mg/kg/injection, schedule: Q04DX003 (sc), vehicle: steriod suspending solution 104 % of control

CC1=C(C(=O)Nc2ccccc2)C(c2ccc(C)cc2)C(C(=O)Nc2ccccc2)=C(C)N1
inactive: dose: 100.0 mg/kg/injection, schedule: Q04DX002 (ip), vehicle: saline with Tween-80 107 % of control | dose: 200.0 mg/kg/injection, schedule: Q04DX002 (ip), vehicle: saline with Tween-80 106 % of control | dose: 400.0 mg/kg/injection, schedule: Q04DX002 (ip), vehicle: saline with Tween-80 101 % of control

Nn1c(-c2nn[nH]n2)nnc1-c1nn[nH]n1 (tested in a mixture with another compound)
inactive: [3] 109 % of control | [4] 107 % of control | [5] 103 % of control

OC1OC2COC(c3ccccc3)OC2C(O)C1O (configuration not stated)
inactive: dose: 25.0 mg/kg/injection, schedule: Q01DX005 (ip), vehicle: water 100 % of control | dose: 50.0 mg/kg/injection, schedule: Q01DX005 (ip), vehicle: water 100 % of control | dose: 100.0 mg/kg/injection, schedule: Q01DX005 (ip), vehicle: water 100 % of control | dose: 200.0 mg/kg/injection, schedule: Q01DX005 (ip), vehicle: water 101 % of control | dose: 400.0 mg/kg/injection, schedule: Q01DX005 (ip), vehicle: water 107 % of control | dose: 800.0 mg/kg/injection, schedule: Q01DX005 (ip), vehicle: water 95 % of control

Cc1ccc(N2C(=O)CCSC2=S)cc1Cl
inactive: [6] 115 % of control | dose: 50.0 mg/kg/injection, schedule: Q01DX009 (ip), vehicle: suspension in saline 87 % of control | [7] 114 % of control and 122 % of control | dose: 100.0 mg/kg/injection, schedule: Q01DX009 (ip), vehicle: suspension in saline 90 % of control | [8] 86 % of control | dose: 200.0 mg/kg/injection, schedule: Q01DX009 (ip), vehicle: suspension in saline 99 % of control

c1ccc(C(c2ccccc2)c2cc(-c3cc(C(c4ccccc4)c4ccccc4)[nH]n3)n[nH]2)cc1
inactive: dose: 60.0 mg/kg/injection, schedule: Q01DX005 (ip), vehicle: distilled water + Tween-80 97 % of control | dose: 120.0 mg/kg/injection, schedule: Q01DX005 (ip), vehicle: distilled water + Tween-80 102 % of control | dose: 240.0 mg/kg/injection, schedule: Q01DX005 (ip), vehicle: distilled water + Tween-80 102 % of control

O=C1OCCOCCOCCOCCOC(=O)c2cccc1c2
inactive: dose: 100.0 mg/kg/injection, schedule: Q04DX003 (ip), vehicle: suspension in saline 100 % of control | dose: 200.0 mg/kg/injection, schedule: Q04DX003 (ip), vehicle: suspension in saline 104 % of control | dose: 400.0 mg/kg/injection, schedule: Q04DX003 (ip), vehicle: suspension in saline 99 % of control

OCC1CCC2CCCCC2N1 (configuration not stated)
inactive: dose: 50.0 mg/kg/injection, schedule: Q01DX005 (ip), vehicle: saline 104 % of control | dose: 100.0 mg/kg/injection, schedule: Q01DX005 (ip), vehicle: saline 102 % of control | dose: 200.0 mg/kg/injection, schedule: Q01DX005 (ip), vehicle: saline 101 % of control

Cc1ccc2nc(=O)c3cccnc3n2c1
inactive: dose: 3.75 mg/kg/injection, schedule: Q01DX005 (ip), vehicle: saline 103 % of control | dose: 7.5 mg/kg/injection, schedule: Q01DX005 (ip), vehicle: saline 97 % of control | dose: 15.0 mg/kg/injection, schedule: Q01DX005 (ip), vehicle: saline 98 % of control

CCC(C)C(NC(=O)OCc1ccccc1)C(=O)ON1C(=O)CCC1=O (configuration not stated)
inactive: dose: 66.0 mg/kg/injection, schedule: Q04DX003 (ip), vehicle: saline with Tween-80 100 % of control | dose: 100.0 mg/kg/injection, schedule: Q04DX003 (ip), vehicle: saline with Tween-80 104 % of control | dose: 150.0 mg/kg/injection, schedule: Q04DX003 (ip), vehicle: saline with Tween-80 109 % of control

Cc1c(NC(=S)Nc2ccccc2C(F)(F)F)c(=O)n(-c2ccccc2)n1C
inactive: [6] 92 % of control | [7] 96 % of control | [8] 100 % of control

N/C(=N/S(=O)(=O)c1cccc([N+](=O)[O-])c1)NS(=O)(=O)c1ccc([N+](=O)[O-])cc1
inactive: dose: 7.5 mg/kg/injection, schedule: Q01DX009 (ip), vehicle: saline with Tween-80 101 % of control | dose: 15.0 mg/kg/injection, schedule: Q01DX009 (ip), vehicle: saline with Tween-80 113 % of control | dose: 30.0 mg/kg/injection, schedule: Q01DX009 (ip), vehicle: saline with Tween-80 110 % of control

CC1=CC(=O)N2CCN=C2S1
inactive: dose: 25.0 mg/kg/injection, schedule: Q04DX003 (ip), vehicle: Klucel (hydroxypropylcellulose) (HPC) 101 % of control | dose: 50.0 mg/kg/injection, schedule: Q04DX003 (ip), vehicle: Klucel (hydroxypropylcellulose) (HPC) 101 % of control | dose: 100.0 mg/kg/injection, schedule: Q04DX003 (ip), vehicle: Klucel (hydroxypropylcellulose) (HPC) 111 % of control and 98 % of control | dose: 200.0 mg/kg/injection, schedule: Q04DX003 (ip), vehicle: Klucel (hydroxypropylcellulose) (HPC) 111 % of control

O=c1[nH]cnc2cccc(Cl)c12
inactive: dose: 60.0 mg/kg/injection, schedule: Q01DX005 (ip), vehicle: saline with Tween-80 90 % of control | dose: 120.0 mg/kg/injection, schedule: Q01DX005 (ip), vehicle: saline with Tween-80 90 % of control | dose: 240.0 mg/kg/injection, schedule: Q01DX005 (ip), vehicle: saline with Tween-80 100 % of control

O=C(NCc1cc(CNC(=O)c2cccc(O)c2O)cc(CNC(=O)c2cccc(O)c2O)c1)c1cccc(O)c1O
inactive: dose: 12.5 mg/kg/injection, schedule: Q01DX005 (ip), vehicle: saline with Tween-80 93 % of control | dose: 25.0 mg/kg/injection, schedule: Q01DX005 (ip), vehicle: saline with Tween-80 102 % of control | [1] 99 % of control and 107 % of control

O=C1c2ccccc2C(=O)C23OC12C1C=CC3CC1 (configuration not stated)
inactive: [3] 94 % of control | [4] 91 % of control | [5] 93 % of control
